From patent US6914045B2, “Glycopeptide antibiotics” (Wyeth Holdings Corporation, priority 2001, dated 2005)
Values after ≈ are worked out from the molar mass of the structure shown.

Legend:
[1] = system: Enterococcus sp.; assay: in vitro antibacterial evaluation, MIC by broth dilution; format: cell-based; conditions: broth dilution, 18 hours at 35° C.; for MIC Enterococcus faecalis (ATCC 29212): strain ATCC 29212; for MIC Enterococcus faecium (GC 2243): strain GC 2243; for MIC Enterococcus faecalis (GC 4552): strain GC 4552; for MIC Enterococcus faecalis (GC 4553): strain GC 4553; for MIC Enterococcus faecalis (GC 4554): strain GC 4554; for MIC Enterococcus faecium (GC 4556): strain GC 4556; for MIC Enterococcus faecium (GC 4557): strain GC 4557; for MIC Enterococcus avium (GC 4558): strain GC 4558; for MIC Enterococcus faecalis (GC 6189): strain GC 6189
Method in brief: (§1)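 Inoculum 5×10^5 CFU/mL; concentrations 64 to 0.06 μg/mL; MIC defined as lowest inhibitory level. Conducted by broth dilution under NCCLS guidelines.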

[2] = system: Escherichia coli; assay: as above; format: cell-based
Method in brief: as §1

[3] = system: Staphylococcus sp.; assay: as above; format: cell-based; conditions: broth dilution, 18 hours at 35° C.; for MIC Staphylococcus aureus (GC 1131): strain GC 1131
Method in brief: as §1

[4] = system: Streptococcus sp.; assay: as above; format: cell-based; conditions: broth dilution, 18 hours at 35° C.
Method in brief: as §1

[5] = system: Staphylococcus aureus-SMITH (GC 4543); assay: acute lethal infection in mice; format: in vivo; conditions: acute lethal infection, female CD-1 mice, intraperitoneal challenge, intravenous 30 min. after infection, 7 day survival
Description: Methods for in Vivo Antibacterial Evaluation
The therapeutic effects of glycopeptide antibiotics of Formula I are determined against acute lethal infections with S. aureus (strain Smith), a penicillin resistant strain of S. pneumoniae (strain GC 1894), and a vancomycin resistant strain of E. fecalis (strain GC 6189 and GC 2246). Female mice, CD-1 (Charles River Laboratories), 20+/−2 gm, are challenged by intraperitoneal injection of sufficient bacteria (suspended in /trypticase Soy Broth or hog gastric mucin) to kill non-treated controls within 24-48 hr. Antibacterial agents, contained in 0.2 mL of saline or 5% dextrose solution, are administered intravenously 30 min. after infection. Five mice are treated at each dose level. The 7 day survival ratios from 3 separate tests are pooled for calculation of median effective dose (ED50).

Structure (SMILES): CC(c1ccccc1)C1NC(=O)CNC(=O)C(CO)NC(=O)C(C(O)C2CNC(=N)N2C2OC(CO)C(O)C(O)C2O)NC(=O)C(C(O)C2CNC(=N)N2)NC(=O)C(Cc2ccc(OC3OC(CO)C(OC4OC5COC(c6cccc(-c7ccccc7)c6)OC5C(O)C4O)C(O)C3O)cc2)NC1=O (stereo not drawn) [Example 154, Cyclo[glycyl-β-methylphenylalanyl-O-[4-O-[4,6-O-(3-phenylbenzylidene)hexopyranosyl]-hexopyranosyl]tyrosyl-3-(2-iminoimidazolidin-4-yl)seryl-3-(3-hexopyranosyl-2-iminoimidazolidin-4-yl)serylseryl]]
- MIC Enterococcus faecalis (GC 2242) ([1]; Enterococcus faecalis (GC 2242)): 2 µg/mL (≈ 1.37 µM)
- MIC Enterococcus faecalis (GC 2691) ([1]; Enterococcus faecalis (GC 2691)): 2 µg/mL (≈ 1.37 µM)
- MIC Enterococcus faecalis (GC 3059) ([1]; Enterococcus faecalis (GC 3059)): 2 µg/mL (≈ 1.37 µM)
- MIC Enterococcus faecalis (ATCC 29212) ([1]; inoculum 5×10^5 CFU/mL): 2 µg/mL (≈ 1.37 µM)
- MIC Enterococcus faecium (GC 2243) ([1]; inoculum 5×10^5 CFU/mL): 2 µg/mL (≈ 1.37 µM)
- MIC Enterococcus faecalis (GC 4552) ([1]; inoculum 5×10^5 CFU/mL): 2 µg/mL (≈ 1.37 µM)
- MIC Enterococcus faecalis (GC 4553) ([1]; inoculum 5×10^5 CFU/mL): 2 µg/mL (≈ 1.37 µM)
- MIC Enterococcus faecalis (GC 4554) ([1]; inoculum 5×10^5 CFU/mL): 2 µg/mL (≈ 1.37 µM)
- MIC Enterococcus faecium (GC 4556) ([1]; inoculum 5×10^5 CFU/mL): 2 µg/mL (≈ 1.37 µM)
- MIC Enterococcus faecium (GC 4557) ([1]; inoculum 5×10^5 CFU/mL): 2 µg/mL (≈ 1.37 µM)
- MIC Enterococcus avium (GC 4558) ([1]; inoculum 5×10^5 CFU/mL): 1 µg/mL (≈ 0.685 µM)
- MIC Enterococcus faecalis (GC 6189) ([1]; inoculum 5×10^5 CFU/mL): 2 µg/mL (≈ 1.37 µM)
- MIC Enterococcus faecalis (ATCC 29212) [1]: 2 µg/mL (≈ 1.37 µM)
- MIC Enterococcus faecalis (GC 2242) ([1]; strain GC 2242): 2 µg/mL (≈ 1.37 µM)
- MIC Enterococcus faecium (GC 2243) [1]: 2 µg/mL (≈ 1.37 µM)
- MIC Enterococcus faecalis (GC 2691) ([1]; strain GC 2691): 2 µg/mL (≈ 1.37 µM)
- MIC Enterococcus faecalis (GC 3059) ([1]; strain GC 3059): 2 µg/mL (≈ 1.37 µM)
- MIC Enterococcus faecalis (GC 4552) [1]: 2 µg/mL (≈ 1.37 µM)
- MIC Enterococcus faecalis (GC 4553) [1]: 2 µg/mL (≈ 1.37 µM)
- MIC Enterococcus faecalis (GC 4554) [1]: 2 µg/mL (≈ 1.37 µM)
- MIC Enterococcus faecium (GC 4556) [1]: 2 µg/mL (≈ 1.37 µM)
- MIC Enterococcus faecium (GC 4557) [1]: 2 µg/mL (≈ 1.37 µM)
- MIC Enterococcus avium (GC 4558) [1]: 1 µg/mL (≈ 0.685 µM)
- MIC Enterococcus faecalis (GC 6189) [1]: 2 µg/mL (≈ 1.37 µM)
- MIC Escherichia coli (ATCC 25922) ([2]; strain ATCC 25922, 18 hours at 35° C.): 32 µg/mL (≈ 21.9 µM)
- MIC Escherichia coli (GC 4559) ([2]; strain GC 4559, 18 hours at 35° C.): 32 µg/mL (≈ 21.9 µM)
- MIC Escherichia coli (GC 4560) ([2]; strain GC 4560, 18 hours at 35° C.): 2 µg/mL (≈ 1.37 µM)
- MIC Staphylococcus aureus (GC 1131) ([3]; inoculum 5×10^5 CFU/mL): 1 µg/mL (≈ 0.685 µM)
- MIC Staphylococcus aureus (ATCC 29213) ([3]; strain ATCC 29213): 1 µg/mL (≈ 0.685 µM)
- MIC Staphylococcus aureus (GC 1131) [3]: 1 µg/mL (≈ 0.685 µM)
- MIC Staphylococcus aureus (GC 3051) ([3]; strain GC 3051): 1 µg/mL (≈ 0.685 µM)
- MIC Staphylococcus aureus (GC 3053) ([3]; strain GC 3053): 2 µg/mL (≈ 1.37 µM)
- MIC Staphylococcus aureus (GC 4541) ([3]; strain GC 4541): 1 µg/mL (≈ 0.685 µM)
- MIC Staphylococcus aureus (GC 4542) ([3]; strain GC 4542): 1 µg/mL (≈ 0.685 µM)
- MIC Staphylococcus aureus-SMITH (GC 4543) ([3]; strain GC 4543): 1 µg/mL (≈ 0.685 µM)
- MIC Staphylococcus aureus (GC 4544) ([3]; strain GC 4544): 2 µg/mL (≈ 1.37 µM)
- MIC Staphylococcus aureus (GC 4545) ([3]; strain GC 4545): 1 µg/mL (≈ 0.685 µM)
- MIC Staphylococcus haemolyticus (GC 4546) ([3]; strain GC 4546): 1 µg/mL (≈ 0.685 µM)
- MIC Coagulase Negative Staphylococcus (GC 4547) ([3]; strain GC 4547): 2 µg/mL (≈ 1.37 µM)
- MIC Coagulase Negative Staphylococcus (GC 4548) ([3]; strain GC 4548): 0.5 µg/mL (≈ 0.343 µM)
- MIC Coagulase Negative Staphylococcus (GC 4549) ([3]; strain GC 4549): 0.25 µg/mL (≈ 0.171 µM)
- MIC Coagulase Negative Staphylococcus (GC 4551) ([3]; strain GC 4551): 2 µg/mL (≈ 1.37 µM)
- MIC Coagulase Negative Staphylococcus (GC 6257) ([3]; strain GC 6257): 1 µg/mL (≈ 0.685 µM)
- MIC Staphylococcus aureus-SMITH (GC 4543) ([3]; strain SMITH GC 4543): 1 µg/mL (≈ 0.685 µM)
- MIC Streptococcus agalactiae (GC 4564) ([4]; Streptococcus agalactiae (GC 4564)): <0.06 µg/mL
- MIC Streptococcus pneumoniae (ATCC 6301) ([4]; Streptococcus pneumoniae (ATCC 6301)): <0.06 µg/mL
- MIC Streptococcus pneumoniae (GC 1894) ([4]; Streptococcus pneumoniae (GC 1894)): <0.06 µg/mL
- MIC Streptococcus pneumoniae (GC 4565) ([4]; Streptococcus pneumoniae (GC 4565)): <0.06 µg/mL
- MIC Streptococcus pyogenes (GC 4563) ([4]; Streptococcus pyogenes (GC 4563)): <0.06 µg/mL
- MIC Streptococcus pneumoniae (ATCC 6301) ([4]; strain ATCC 6301): <0.06 µg/mL
- MIC Streptococcus pneumoniae (GC 1894) ([4]; strain GC 1894): <0.06 µg/mL
- MIC Streptococcus pyogenes (GC 4563) ([4]; strain GC 4563): <0.06 µg/mL
- MIC Streptococcus agalactiae (GC 4564) ([4]; strain GC 4564): <0.06 µg/mL
- MIC Streptococcus pneumoniae (GC 4565) ([4]; strain GC 4565): <0.06 µg/mL
- median effective dose (ED50), Staphylococcus aureus-SMITH (GC 4543) [5]: 0.1 mg/kg
